Measured values from patent publication US10086077B2, “Activated macrophage targetable drug carrier for treatment of atherosclerosis and methods of preparing the same” (Korea University Research and Business Foundation, priority 2016, dated 2018).

Assays:
ApoE−/− mice [1] = test: In vivo imaging of carotid atherosclerotic plaque, general and in-vivo fluorescence microscope; settings: 14 mg/kg/week for four weeks, before vs after
Source text: In order to evaluate a possibility of reducing inflammation and a size of the atherosclerotic plaque in vivo of the drug carrier encapsulated with the lobeglitazone, the drug carrier encapsulated with the lobeglitazone was administrated in mice (ApoE−/− mice) causing the atherosclerosis at a carotid branch.
More particularly, the ApoE −/− mice with the atherosclerosis are divided into three groups, and then in the first group, a drug carrier encapsulated with a mannose receptor-specific lobeglitazone was administrated (14 mg/kg/week), in the second group, the same quantity of lobeglitazone was orally administrated (14 mg/kg/week), and in the third group, a treating drug was not administrated. After the drug was administrated for four weeks, the same carotid branch portion was peeled and the size and the inflammation degree of the atherosclerotic plaque before and after treatment were observed and compared by a general microscope and an in-vivo fluorescence microscope.
Particularly, the effect of treating atherosclerosis was evaluated by comparing and analyzing an atherosclerotic size and an inflammation degree before administrating the drug and after administrating the drug for four weeks by administrating a glycol chitosan-based drug carrier (attached with a fluorescent material) capable of imaging an atherosclerotic plaque selectively bound to the mannose receptor over-expressed in the macrophage to an atherosclerotic model mouse and then peeling the carotid branch portion to image the carotid branch portion by an in-vivo fluorescence microscope.
In order to objectively quantify the inflammation degree expressed in the atherosclerotic plaque, a signal of autofluorescence or more of the atherosclerotic plaque measured in the Experimental Example 4 was extracted to quantify the range of signal expression and the degree of signal intensity.

ApoE−/− mice [2] = test: Histopathology of carotid atherosclerotic plaque: H&E, MAC3 and CD 206 staining; type: in vivo; settings: after four weeks (FIG. 9)
Protocol: Further, the effect of treating atherosclerosis of the drug carrier encapsulated with the lobeglitazone was evaluated by histopathologically analyzing the size of the atherosclerotic plaque reflecting the inflammation degree of the atherosclerotic plaque, distribution of the macrophages, and expression of mannose receptors in the macrophage. The atherosclerotic plaque of the carotid extracted from the arteriosclerosis model mouse was stained by H&E staining, MAC3 staining (macrophage staining), and CD 206 staining (macrophage mannose receptor staining).
FIG. 9 is a photograph illustrating sizes of atherosclerotic plaques by using H&E staining, MAC3 staining, and CD 206 staining in the group administered with the drug carrier according to an example embodiment, the group administered orally with lobeglitazone, and the group administered with no drug. FIG. 9 is a photograph illustrating an atherosclerotic plaque in the carotid extracted from the mouse by CD 206 staining (macrophage mannose receptor staining), MAC3 staining (macrophage staining), and H&E staining, before administrating the drug and after administrating the drug for four weeks, respectively, in a group (MMR-lobe) administrated with a glycol chitosan drug carrier encapsulated with lobeglitazone, a group (PO-Lobe) orally administrated with lobeglitazone, and a group (Control) administered with no drug, respectively.

COc1ccc(Oc2cc(N(C)CCOc3ccc(CC4SC(=O)NC4=O)cc3)ncn2)cc1 (stereo not drawn) [lobeglitazone]
inflammation degree of the atherosclerosis (ApoE−/− mice [1]; images (FIGS. 5A-5C)): not largely changed | size of the atherosclerosis (ApoE−/− mice [1]; images (FIGS. 5A-5C)): not largely changed | fluorescence intensity expressed in the atherosclerotic plaque (ApoE−/− mice [1]; quantified (FIG. 6)): no difference | CD 206 (macrophage mannose receptor staining) (ApoE−/− mice [2]; CD 206 staining): decreased | size of the atherosclerotic plaque (ApoE−/− mice [2]; H&E staining): decreased | MAC3 (macrophage staining) (ApoE−/− mice [2]; MAC3 staining): decreased
